The record followed here is US11141444B2, “Lactobacillus crispatus KBL693 strain and use thereof” (KO Biolabs, Inc., priority 2018, dated 2021).

Each structure is given as a SMILES string.

This experiment concerns RBL-2H3 cells. Briefly: Inhibition of degranulation (β-hexosaminidase co-secreted with histamine) in RBL-2H3 cells. Format: cell-based. The conditions noted are these: RBL-2H3, IgE + DNP-HAS induced degranulation; 120 μL culture supernatant or ketotifen 20 μg/mL; negative control (Siraganian buffer) = 1.0. The source says: It has been reported that, in an allergic reaction, histamine is expressed in tissues, causing an inflammatory reaction, and suppressing histamine secretion leads to alleviation of allergic symptoms by blocking the reaction by histamine. The present invention attempted to select probiotic strains that can show effects on the alleviation and treatment of allergic reactions through inhibition of histamine secretion. To this end, a total of eight Lactobacillus strains derived from human vagina were evaluated for the ability to suppress histamine secretion. […]
To identify the activity of β-hexosaminidase, 25 μL of the supernatant collected in Example 1-3 was transferred to each well of a 96-well plate, and then 25 μL of each substrate (p-nitrophenyl N-acetyl-D-[…]) was added thereto, and followed by a reaction at 37° C. in the 5% CO2 incubator for 90 minutes. Then, 200 μL of stop solution (Na2CO3/NaHCO3) was added to stop the reaction and then absorbance was measured at 405 nm. The absorbance when treated with each type of Lactobacillus crispatus was compared to the negative control group and converted to percentage to show the level of inhibition of the degranulation.

For the compound `CN1CCC(=C2c3ccccc3CC(=O)c3sccc32)CC1` [Ketotifen, ketotifen], the “β-hexosaminidase (fold change)” value is 0.2569 fold change.
